ChEMBL document CHEMBL5465560, “Selectivity Literature for EUbOPEN Chemogenomic Library” (2024)

Columns and labels:
[1] = molecular target: Death-associated protein kinase 3 (Homo sapiens) (UniProt O43293); conditions: at 10 µM
[2] = molecular target: Glycogen synthase kinase-3 alpha (Homo sapiens, UniProt P49840); assay: Selectivity interaction (KinomeScan (DiscoverX)) EUB0000666a GSK3A; conditions: at 10 µM
[3] = molecular target: Protein kinase C gamma type (Homo sapiens) (UniProt P05129); assay: Selectivity interaction (Millipore kinase profiler) EUB0000124b PRKCG; conditions: at 10 µM
[4] = molecular target: T1, Dual specificity mitogen-activated protein kinase kinase 6 (Homo sapiens) (UniProt P52564); conditions: at 10 µM
T1 sequence (whole entry): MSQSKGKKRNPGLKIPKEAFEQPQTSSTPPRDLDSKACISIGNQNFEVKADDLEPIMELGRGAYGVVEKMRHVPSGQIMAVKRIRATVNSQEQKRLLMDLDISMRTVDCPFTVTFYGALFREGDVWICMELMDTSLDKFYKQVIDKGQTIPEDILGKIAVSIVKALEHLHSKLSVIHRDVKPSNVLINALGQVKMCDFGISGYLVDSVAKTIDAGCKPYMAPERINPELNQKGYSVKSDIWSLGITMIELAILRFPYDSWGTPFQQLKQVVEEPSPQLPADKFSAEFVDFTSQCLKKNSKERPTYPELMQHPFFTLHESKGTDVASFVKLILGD

[5] = molecular target: T2, Tyrosine-protein kinase Tec (Homo sapiens) (UniProt P42680); assay: Selectivity interaction (ActivX KiNativ screen (kinase selectivity in THP-1 cell lysates)) EUB0000639a TEC; format: subcellular; conditions: lysate, at 0.01 µM
T2 sequence (whole entry): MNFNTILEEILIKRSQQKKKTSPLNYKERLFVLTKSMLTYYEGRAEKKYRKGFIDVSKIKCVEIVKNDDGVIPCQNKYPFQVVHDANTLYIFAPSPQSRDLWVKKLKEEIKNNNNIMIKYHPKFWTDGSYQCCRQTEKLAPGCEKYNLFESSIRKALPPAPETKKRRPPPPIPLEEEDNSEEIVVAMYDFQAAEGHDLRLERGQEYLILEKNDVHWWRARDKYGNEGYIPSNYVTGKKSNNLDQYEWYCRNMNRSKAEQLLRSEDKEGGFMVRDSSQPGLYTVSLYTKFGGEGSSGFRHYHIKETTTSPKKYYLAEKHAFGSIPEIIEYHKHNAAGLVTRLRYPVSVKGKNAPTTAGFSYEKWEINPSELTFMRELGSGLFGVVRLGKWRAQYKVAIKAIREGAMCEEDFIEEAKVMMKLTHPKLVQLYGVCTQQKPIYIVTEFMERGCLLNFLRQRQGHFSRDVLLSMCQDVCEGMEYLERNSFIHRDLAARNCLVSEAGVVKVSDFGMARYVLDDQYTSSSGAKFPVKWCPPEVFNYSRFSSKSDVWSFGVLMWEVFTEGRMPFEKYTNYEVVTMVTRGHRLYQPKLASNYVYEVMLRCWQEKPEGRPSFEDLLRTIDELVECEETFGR

[6] = molecular target: Leucine-rich repeat serine/threonine-protein kinase 2 (Homo sapiens, UniProt Q5S007); assay: Selectivity interaction (Kinase panel (Invitrogen)) EUB0000639a LRRK2; conditions: at 200 nM
[7] = molecular target: Calcium/calmodulin-dependent protein kinase type 1G (Homo sapiens) (UniProt Q96NX5); assay: Selectivity interaction (KinomeScan (DiscoverX)) EUB0000607a CAMK1G; conditions: at 10 µM
Sequence of Calcium/calmodulin-dependent protein kinase type 1G (Homo sapiens) (Q96NX5 whole entry): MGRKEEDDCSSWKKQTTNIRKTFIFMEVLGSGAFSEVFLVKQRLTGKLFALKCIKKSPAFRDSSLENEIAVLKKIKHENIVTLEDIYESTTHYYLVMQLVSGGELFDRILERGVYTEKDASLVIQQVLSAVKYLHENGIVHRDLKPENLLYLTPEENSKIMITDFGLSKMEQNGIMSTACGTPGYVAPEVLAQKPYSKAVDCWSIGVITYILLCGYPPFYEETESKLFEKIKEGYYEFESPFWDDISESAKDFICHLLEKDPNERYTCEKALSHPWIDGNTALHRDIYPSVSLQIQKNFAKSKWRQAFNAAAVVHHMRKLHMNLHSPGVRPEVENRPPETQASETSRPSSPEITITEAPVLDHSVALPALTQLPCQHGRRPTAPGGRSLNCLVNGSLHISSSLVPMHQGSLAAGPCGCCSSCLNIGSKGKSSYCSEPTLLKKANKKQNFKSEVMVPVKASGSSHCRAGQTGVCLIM

[8] = molecular target: Platelet-derived growth factor receptor beta (Homo sapiens, UniProt P09619); assay: Selectivity interaction (SelectScreen profiling (Invitrogen)) EUB0000607a PDGFRB; conditions: at 2 µM
Sequence of Platelet-derived growth factor receptor beta (P09619 whole entry): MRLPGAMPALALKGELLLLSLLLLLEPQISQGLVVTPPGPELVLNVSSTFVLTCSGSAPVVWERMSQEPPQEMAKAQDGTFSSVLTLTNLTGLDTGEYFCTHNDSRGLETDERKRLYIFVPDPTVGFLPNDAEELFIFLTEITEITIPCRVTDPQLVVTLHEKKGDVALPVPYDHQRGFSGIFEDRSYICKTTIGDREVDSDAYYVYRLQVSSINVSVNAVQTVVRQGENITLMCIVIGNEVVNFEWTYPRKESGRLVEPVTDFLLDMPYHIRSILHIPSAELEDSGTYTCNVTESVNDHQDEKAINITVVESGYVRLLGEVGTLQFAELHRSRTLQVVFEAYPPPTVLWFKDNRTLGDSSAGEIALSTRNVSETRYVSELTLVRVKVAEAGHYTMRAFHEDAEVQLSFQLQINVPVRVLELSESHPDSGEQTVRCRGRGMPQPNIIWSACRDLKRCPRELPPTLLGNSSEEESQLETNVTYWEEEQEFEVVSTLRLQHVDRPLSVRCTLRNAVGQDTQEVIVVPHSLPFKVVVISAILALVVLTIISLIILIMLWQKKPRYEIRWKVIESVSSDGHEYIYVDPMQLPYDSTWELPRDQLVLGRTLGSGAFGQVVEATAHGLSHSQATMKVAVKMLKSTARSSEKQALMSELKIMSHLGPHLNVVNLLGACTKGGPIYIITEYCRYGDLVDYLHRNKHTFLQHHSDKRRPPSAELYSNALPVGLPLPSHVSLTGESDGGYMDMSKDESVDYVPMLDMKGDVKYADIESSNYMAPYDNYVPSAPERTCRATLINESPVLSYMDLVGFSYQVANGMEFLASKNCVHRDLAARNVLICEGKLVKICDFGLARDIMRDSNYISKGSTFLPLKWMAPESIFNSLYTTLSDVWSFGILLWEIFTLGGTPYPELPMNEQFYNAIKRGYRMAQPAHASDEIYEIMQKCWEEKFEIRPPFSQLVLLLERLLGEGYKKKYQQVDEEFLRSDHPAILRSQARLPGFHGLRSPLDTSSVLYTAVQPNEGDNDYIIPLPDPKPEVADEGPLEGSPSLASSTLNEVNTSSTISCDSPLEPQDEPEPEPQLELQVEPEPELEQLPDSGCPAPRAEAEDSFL

[9] = molecular target: Activin receptor type-1-like (Homo sapiens) (UniProt P37023); assay: Selectivity interaction (KinomeScan (DiscoverX)) EUB0001049a ACVRL1; conditions: at 1 µM
Sequence of Activin receptor type-1-like (Homo sapiens) (P37023 whole entry): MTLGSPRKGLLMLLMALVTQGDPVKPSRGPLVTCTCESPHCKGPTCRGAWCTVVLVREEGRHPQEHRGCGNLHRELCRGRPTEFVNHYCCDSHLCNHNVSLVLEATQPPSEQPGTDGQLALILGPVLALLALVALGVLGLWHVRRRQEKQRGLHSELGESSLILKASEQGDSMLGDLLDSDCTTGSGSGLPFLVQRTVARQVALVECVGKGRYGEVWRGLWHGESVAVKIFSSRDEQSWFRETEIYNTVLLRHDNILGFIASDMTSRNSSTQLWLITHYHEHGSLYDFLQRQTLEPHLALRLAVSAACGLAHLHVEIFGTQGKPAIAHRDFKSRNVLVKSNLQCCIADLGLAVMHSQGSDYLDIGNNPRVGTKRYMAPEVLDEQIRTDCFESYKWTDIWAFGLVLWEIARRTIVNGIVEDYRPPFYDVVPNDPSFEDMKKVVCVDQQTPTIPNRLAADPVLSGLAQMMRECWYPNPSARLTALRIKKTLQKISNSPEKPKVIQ

[10] = molecular target: T3, Hormonally up-regulated neu tumor-associated kinase (Homo sapiens) (UniProt P57058); assay: Selectivity interaction (Ambit KINOMEscan and KiNATiv profiling in Jurkat cells) EUB0000090b HUNK; format: cell-based; conditions: at 1 µM
T3 sequence (whole entry): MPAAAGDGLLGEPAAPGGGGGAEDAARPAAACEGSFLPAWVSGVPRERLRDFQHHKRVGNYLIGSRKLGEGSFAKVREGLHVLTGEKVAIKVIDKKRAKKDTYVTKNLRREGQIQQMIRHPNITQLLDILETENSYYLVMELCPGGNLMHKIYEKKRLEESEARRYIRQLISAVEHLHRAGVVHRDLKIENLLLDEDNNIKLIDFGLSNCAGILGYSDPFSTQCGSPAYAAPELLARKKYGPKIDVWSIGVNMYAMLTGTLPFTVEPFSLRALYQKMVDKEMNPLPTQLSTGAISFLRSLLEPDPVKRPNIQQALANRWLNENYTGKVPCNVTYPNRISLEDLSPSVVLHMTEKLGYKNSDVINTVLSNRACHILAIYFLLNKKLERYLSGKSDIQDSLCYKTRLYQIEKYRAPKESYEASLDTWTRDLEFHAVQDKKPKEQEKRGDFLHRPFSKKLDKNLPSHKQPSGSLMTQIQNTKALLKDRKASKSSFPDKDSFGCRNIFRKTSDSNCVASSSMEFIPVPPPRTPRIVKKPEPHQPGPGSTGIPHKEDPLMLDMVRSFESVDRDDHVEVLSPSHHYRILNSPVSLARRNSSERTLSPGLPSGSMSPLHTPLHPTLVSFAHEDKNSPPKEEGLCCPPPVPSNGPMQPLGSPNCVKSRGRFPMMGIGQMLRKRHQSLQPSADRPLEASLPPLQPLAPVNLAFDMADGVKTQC

[11] = molecular target: Serine/threonine-protein kinase OSR1 (Homo sapiens) (UniProt O95747); assay: Selectivity interaction (ActivX KiNativ screen (ex vivo kinase selectivity in human PBMCs)) EUB0001619a OXSR1; format: cell-based; conditions: PBMC, at 1 µM
Sequence of Serine/threonine-protein kinase OSR1 (Homo sapiens) (O95747 2-527 limits assumed): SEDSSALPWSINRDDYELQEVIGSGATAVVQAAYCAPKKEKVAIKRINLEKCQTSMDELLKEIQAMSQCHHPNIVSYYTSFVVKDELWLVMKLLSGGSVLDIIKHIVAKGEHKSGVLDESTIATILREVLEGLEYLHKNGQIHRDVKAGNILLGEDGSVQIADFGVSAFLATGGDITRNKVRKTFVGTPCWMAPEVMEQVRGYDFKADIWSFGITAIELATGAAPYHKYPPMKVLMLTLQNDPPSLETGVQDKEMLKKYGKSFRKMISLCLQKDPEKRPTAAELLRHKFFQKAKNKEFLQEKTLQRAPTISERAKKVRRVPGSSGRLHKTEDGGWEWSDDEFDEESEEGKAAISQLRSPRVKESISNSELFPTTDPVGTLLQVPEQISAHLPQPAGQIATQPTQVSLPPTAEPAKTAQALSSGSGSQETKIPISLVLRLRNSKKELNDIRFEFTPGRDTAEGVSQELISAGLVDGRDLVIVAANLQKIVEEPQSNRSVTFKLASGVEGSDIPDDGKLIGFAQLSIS

Sequence of Death-associated protein kinase 3 (Homo sapiens) (O43293 whole entry, looked up): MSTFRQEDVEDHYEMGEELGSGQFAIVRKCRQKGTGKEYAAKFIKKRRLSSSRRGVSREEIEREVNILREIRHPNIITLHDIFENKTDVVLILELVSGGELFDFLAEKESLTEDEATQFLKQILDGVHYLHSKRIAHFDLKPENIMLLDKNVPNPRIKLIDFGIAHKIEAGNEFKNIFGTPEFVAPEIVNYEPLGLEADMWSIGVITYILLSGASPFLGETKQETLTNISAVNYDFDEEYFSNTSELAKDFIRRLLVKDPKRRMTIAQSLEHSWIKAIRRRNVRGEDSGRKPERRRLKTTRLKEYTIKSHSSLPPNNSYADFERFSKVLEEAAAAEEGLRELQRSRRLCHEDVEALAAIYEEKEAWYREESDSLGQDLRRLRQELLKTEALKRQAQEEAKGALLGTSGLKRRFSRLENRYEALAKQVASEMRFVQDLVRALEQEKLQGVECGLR
Sequence of Glycogen synthase kinase-3 alpha (P49840 2-483 limits assumed): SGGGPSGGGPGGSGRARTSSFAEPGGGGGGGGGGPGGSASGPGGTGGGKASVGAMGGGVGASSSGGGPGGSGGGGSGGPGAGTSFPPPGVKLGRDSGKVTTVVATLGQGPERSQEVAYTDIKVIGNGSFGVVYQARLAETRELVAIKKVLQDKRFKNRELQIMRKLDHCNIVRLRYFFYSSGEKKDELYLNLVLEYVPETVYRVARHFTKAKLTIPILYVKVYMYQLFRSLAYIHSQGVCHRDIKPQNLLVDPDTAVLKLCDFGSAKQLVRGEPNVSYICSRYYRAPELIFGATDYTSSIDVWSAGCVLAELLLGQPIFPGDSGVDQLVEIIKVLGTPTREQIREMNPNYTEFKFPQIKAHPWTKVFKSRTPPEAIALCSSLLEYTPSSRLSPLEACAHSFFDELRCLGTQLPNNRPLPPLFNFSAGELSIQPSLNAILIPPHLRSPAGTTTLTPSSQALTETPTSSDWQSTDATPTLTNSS

**Q.** With `CCN(CC)CCCCNc1ncc2cc(-c3cc(OC)cc(OC)c3)c(NC(=O)NC(C)(C)C)nc2n1` as the compound, how does the % of control [1] read?
**A.** 100%

**Q.** With `O=C(NOC[C@H](O)CO)c1ccc(F)c(F)c1Nc1ccc(I)cc1F` as the compound, how does the % of control [2] read?
**A.** 90%

**Q.** For `CC(=O)Nc1cccc(-n2c(=O)n(C3CC3)c(=O)c3c(Nc4ccc(I)cc4F)n(C)c(=O)c(C)c32)c1`, which % of control [3] is on record?
**A.** 107%

**Q.** With `Cc1cc([C@@H](C)Nc2ccccc2C(=O)O)c2nc(N3CCOCC3)cc(=O)n2c1` [AZD-6482] as the compound, how does the % of control [4] read?
**A.** 92%

**Q.** For `CC[C@@H]1[C@H](F)C(=O)N[C@@H]1COc1nccc2cc(C(N)=O)c(OC)cc12` [ZIMLOVISERTIB], which % of inhibition [5] is on record?
**A.** -72.2%

**Q.** What about the % of inhibition [6] of the same compound?
**A.** 75.5%

**Q.** For `CNC(=O)Nc1ccc(-c2nc(N3CC4CCC(C3)O4)c3cnn(C4CCC5(CC4)OCCO5)c3n2)cc1`, which % of control [7] is on record?
**A.** 100%

**Q.** What about the % of inhibition [8] of the same compound?
**A.** 2%

**Q.** With `COc1cc(Nc2nc(C)cc(-c3cnn4nc(OC)ccc34)n2)cc(C(F)(F)F)c1` as the compound, how does the % of control [9] read?
**A.** 89%

**Q.** For `CN(C)C/C=C/C(=O)Nc1ccc(C(=O)N2CCCC(Nc3ncc(Cl)c(-c4c[nH]c5ccccc45)n3)C2)cc1` (stereo unspecified), which % of control [10] is on record?
**A.** 80%

**Q.** `N#Cc1cccc(-c2c[nH]c3ncnc(N4CCOCC4)c23)c1` was tested. Which % of inhibition [11] did it give?
**A.** -55%
